In ChEMBL document CHEMBL3621053, “Isoxazole derivatives of 6-fluoro-N-(6-methoxybenzo[d]thiazol-2-yl)benzo[d]thiazol-2-amine and N-(pyrimidin-2-yl)benzo[d]thiazol-2-amine: regulation of cell cycle and apoptosis by p53 activation via mitochondrial-dependent pathways” (Medchemcomm, 2014):
pIC50: −log10 of the molar value. Active and inactive are the calls of the source. The rule behind the calls is not given here.

Assays:
MCF7 = test: Anticancer activity against human MCF7 cells by MTT assay; assay type: functional, cell-based
[1] = Anticancer activity against human COLO205 cells by MTT assay; assay type: functional, cell-based; conditions: COLO 205
A549 = test: Anticancer activity against human A549 cells by MTT assay; assay type: functional, cell-based
U-937 = test: Anticancer activity against human U937 cells by MTT assay; assay type: functional, cell-based
[2] = Decrease in Bcl2 expression in human COLO205 cells after 24 hrs by western blot analysis; assay type: functional, cell-based; conditions: COLO 205
COLO 205 [3] = test: Increase in Bax expression in human COLO205 cells after 24 hrs by western blot analysis; assay type: functional, cell-based
COLO 205 [4] = test: Induction of DNA damage in human COLO205 cells assessed as tail DNA formation by alkaline comet assay (reference value: 0%); assay type: functional
COLO 205 [5] = test: Induction of cell cycle arrest in human COLO205 cells assessed as accumulation at G2/M phase after 24 hrs by flow cytometry; assay type: functional, cell-based
[6] = Decrease in NFkappaB expression in human COLO205 cells after 24 hrs by western blot analysis; assay type: functional, cell-based; conditions: COLO 205
COLO 205 [7] = test: Effect on CDK1 expression in human COLO205 cells by western blot analysis; assay type: functional, cell-based
COLO 205 [8] = test: Increase in procaspase-3 expression in human COLO205 cells after 24 hrs by western blot analysis; assay type: functional, cell-based
COLO 205 [9] = test: Increase in active caspase-3 expression in human COLO205 cells after 24 hrs by western blot analysis; assay type: functional, cell-based
[10] = Decrease in cyclin B1 expression in human COLO205 cells by western blot analysis; assay type: functional, cell-based; conditions: COLO 205
COLO 205 [11] = test: Increase in caspase-9 expression in human COLO205 cells after 24 hrs by western blot analysis; assay type: functional, cell-based
COLO 205 [12] = test: Increase in Apaf1 expression in human COLO205 cells after 24 hrs by western blot analysis; assay type: functional, cell-based

| Compound | pIC50 (MCF7) | pIC50 (A549) | pIC50 (U-937) | pIC50 [1] | Activity [2] | inhibition (COLO 205 [3]) | Activity (COLO 205 [4]) [%] | Activity (COLO 205 [5]) | inhibition [6] | Activity (COLO 205 [7]) | Activity (COLO 205 [8]) | Activity (COLO 205 [9]) | inhibition [10] | Activity (COLO 205 [11]) | Activity (COLO 205 [12]) |
| --- | --- | --- | --- | --- | --- | --- | --- | --- | --- | --- | --- | --- | --- | --- | --- |
| COc1ccc2nc(N(Cc3cc(-c4ccc(OC(F)(F)F)cc4)no3)c3nc4ccc(F)cc4s3)sc2c1 | 4.76 | 4.43 | 4.64 | 5.00 | – | – | – | – | – | – | – | – | – | – | – |
| COc1ccc2nc(N(Cc3cc(-c4ccccc4F)no3)c3nc4ccc(F)cc4s3)sc2c1 | 4.55 | 4.29 | 4.53 | 4.87 | – | – | – | – | – | – | – | – | – | – | – |
| COc1ccc2nc(N(Cc3cc(-c4cc(OC)c(OC)c(OC)c4)no3)c3nc4ccc(F)cc4s3)sc2c1 | 4.58 | 4.21 | 4.36 | 4.93 | – | – | – | – | – | – | – | – | – | – | – |
| FC(F)(F)Oc1ccc(-c2cc(CN(c3ncccn3)c3nc4ccccc4s3)on2)cc1 | 4.83 | 4.50 | 4.87 | 5.24 | – | – | – | – | – | – | – | – | – | – | – |
| COc1cc(-c2cc(CN(c3ncccn3)c3nc4ccccc4s3)on2)cc(OC)c1OC | 4.87 | 4.55 | 4.58 | 4.99 | – | – | – | – | – | – | – | – | – | – | – |
| FC(F)(F)Sc1ccc(-c2cc(CN(c3ncccn3)c3nc4ccccc4s3)on2)cc1 | 4.76 | 4.53 | 4.71 | 5.00 | – | – | – | – | – | – | – | – | – | – | – |
| COc1ccc(-c2cc(CN(c3ncccn3)c3nc4ccccc4s3)on2)cc1 | 4.51 | 4.52 | 4.86 | 5.30 | Active | Active | 17.72 | Active | Active | inactive | Active | Active | Active | Active | Active |
| Brc1ccc(-c2cc(CN(c3ncccn3)c3nc4ccccc4s3)on2)cc1 | 4.68 | 4.50 | 4.87 | 5.05 | – | – | – | – | – | – | – | – | – | – | – |
| COc1ccc2nc(N(Cc3cc(-c4ccc(SC(F)(F)F)cc4)no3)c3nc4ccc(F)cc4s3)sc2c1 | 4.85 | 4.58 | 4.37 | 4.96 | – | – | – | – | – | – | – | – | – | – | – |
| Fc1ccccc1-c1cc(CN(c2ncccn2)c2nc3ccccc3s2)on1 | 4.71 | 4.59 | 4.56 | 4.88 | – | – | – | – | – | – | – | – | – | – | – |

More lines, main results first:

| pIC50 (MCF7) | pIC50 (A549) | pIC50 (U-937) | Compound | pIC50 [1] | Activity [2] | inhibition (COLO 205 [3]) | Activity (COLO 205 [4]) [%] | Activity (COLO 205 [5]) | inhibition [6] | Activity (COLO 205 [7]) | Activity (COLO 205 [8]) | Activity (COLO 205 [9]) | inhibition [10] | Activity (COLO 205 [11]) | Activity (COLO 205 [12]) |
| --- | --- | --- | --- | --- | --- | --- | --- | --- | --- | --- | --- | --- | --- | --- | --- |
| 8.10 | 5.33 | 5.00 | COc1cc([C@@H]2c3cc4c(cc3[C@@H](O[C@@H]3O[C@@H]5CO[C@@H](C)O[C@H]5[C@H](O)[C@H]3O)[C@H]3COC(=O)[C@H]23)OCO4)cc(OC)c1O [ETOPOSIDE] | 6.33 | Active | Active | 6.564 | Active | – | – | – | – | – | – | – |
| 4.39 | 4.48 | 4.46 | COc1ccc2nc(N(Cc3cc(-c4ccc(Br)cc4)no3)c3nc4ccc(F)cc4s3)sc2c1 | 5.15 | – | – | – | – | – | – | – | – | – | – | – |
| 4.74 | 4.76 | 4.80 | C#CCN(c1ncccn1)c1nc2ccccc2s1 | 4.92 | Active | Active | 4.194 | Active | – | – | – | – | – | – | – |
| 4.49 | 4.41 | 3.86 | COc1ccc(-c2cc(CN(c3nc4ccc(F)cc4s3)c3nc4ccc(OC)cc4s3)on2)cc1 | 4.94 | – | – | – | – | – | – | – | – | – | – | – |
| 4.56 | 4.61 | 4.60 | C#CCN(c1nc2ccc(F)cc2s1)c1nc2ccc(OC)cc2s1 | 4.52 | – | – | – | – | – | – | – | – | – | – | – |
